Measured values taken from PMC2804029 (Journal of medicinal chemistry, 2010).
Entries after “also recorded” stand apart in the source; their conditions may differ.

Key:
B. anthracis DHPS [1] = target: T1, B. anthracis DHPS (Bacillus anthracis, UniProt Q81VW8); experiment: biochemical; type: biochemical
B. anthracis DHPS [2] = target: T1, B. anthracis DHPS; type: binding

T1 sequence (Q81VW8 1-280): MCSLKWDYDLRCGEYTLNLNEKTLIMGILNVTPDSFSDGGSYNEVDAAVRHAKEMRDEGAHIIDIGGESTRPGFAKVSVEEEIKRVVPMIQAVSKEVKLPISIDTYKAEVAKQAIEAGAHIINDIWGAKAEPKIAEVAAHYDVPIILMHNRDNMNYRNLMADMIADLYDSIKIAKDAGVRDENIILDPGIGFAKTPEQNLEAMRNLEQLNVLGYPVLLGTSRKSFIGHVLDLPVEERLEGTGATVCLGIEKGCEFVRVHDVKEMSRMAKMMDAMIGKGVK

For `Nc1nc2c(c(=O)[nH]1)N=C(CO)CN2` [Control, 6-hydroxymethyl-7,8-dihydropterin], the IC50 (B. anthracis DHPS [1]) was 58.4 µM and the inhibition at 250 µM (B. anthracis DHPS [1]; read-out: B. anthracis % inhibition) was 60%.

In the case of `Nc1nc2[nH]c(S)nc2c(=O)[nH]1` [Compound 5], the “percentage inhibition of DHPS” value (B. anthracis DHPS [1]) is reported as “did not show inhibition; also recorded: little or no inhibition”.

`Nc1ccc(C(=O)O)cc1` [pABA, p-aminobenzoic acid] was tested, and the “binding (heats of binding) by ITC” value (B. anthracis DHPS [2]) was “does not bind; also recorded: No heats of binding could be detected”.
